Common to all, as to assay type: cell-based
One data set deals with hERG potassium channel (Homo sapiens, UniProt Q12809). The experiment in a line: hERG screening assay (PatchXpress, CHO cells). On the set-up: hERG: unit not given here. The protocol:
Compounds were also tested for their effect to block the hERG K^+ channel.
Compounds were screened to test their activity in blocking the hERG potassium channel at AVIVA Biosciences (San Deigo, Calif., USA). The hERG channel is heterologously expressed in a CHO (Chinese Hamster Ovary) cell line. Cells were maintained with standard tissue culture procedures and stable channel expression was maintained with 500 μg/mL G418 in the culture medium. Cells were harvested for testing on the PatchXpress 7000A automated patch clamp with Accumax (Innovative Cell Technologies, San Diego, Calif.) to isolate single cells.
The following solutions were used for electrophysiological recordings. The external solution contained: 2 mM CaCl2; 2 mM MgCl2; 4 mM KCl; 150 mM NaCl; 10 mM Glucose; 10 mM HEPES (pH 7.4 with 1M NaOH; osmolarity, ˜310 mOsm).
hERG channels were activated when the voltage was first stepped to −50 mV for 300 ms from the −80 mV holding potential and then stepped to +20 mV for 5 seconds. At +20 mV the channels open and then largely inactivate, so the currents are relatively small. Upon returning to −50 mV from +20 mV, hERG currents transiently become much larger as inactivation is rapidly removed and then the channel closes. The first step to −50 mV for 300 ms was used as a baseline for measuring the peak amplitude during the step to −50 mV after channel activation. The peak tail current at −50 mV was measured both under control conditions and after addition of compound, each cell serving as its own control.
All compounds were prepared as 10 mM DMSO stocks in glass vials. Stock solutions were mixed by vigorous vortexing and sonication for about 2 minutes at room temperature. For testing, compounds were diluted in glass vials using an intermediate dilution step in pure DMSO and then further diluted to working concentrations in external solution. Dilutions were prepared no longer than 20 minutes before use.
For the electrophysiological recordings, after achieving the whole-cell configuration, cells were monitored for 90 seconds to assess stability and washed with external solution for 66 seconds. The voltage protocol described above was then applied to the cells every 12 seconds and throughout the whole procedure. Only cells with stable recording parameters and meeting specified health criteria were allowed to enter the compound addition procedure.
External solution containing 0.1% DMSO (vehicle) was applied to the cells first to establish the control peak current amplitude. After allowing the current to stabilize for 3 to 5 minutes, 1 μM and then 10 μM test compounds were applied. Each compound concentration was added 4 times and cells were kept in test solution until the effect of the compound reached steady state or for a maximum of 12 minutes. […] Washout in the external solution compartment was performed until the recovery of the current reached steady state.
Background: Block of hERG is tested as a sign of cardiac risk.

In data set [1] the target is T1, hNav 1.1 sodium channel isoform (Homo sapiens, UniProt P35498).
T1 construct: expressed in transfected cells; host or cells: HEK293, transient transfection (Qiagen Superfect)
The experiment in a line: hNav1.1 whole-cell voltage-clamp assay. As to conditions: for inhibition at 1 µM: use-dependent block, 10 Hz, read-out: NAV1.1* UDB-10HZ.

Data set [2] deals with T2, hNav 1.2 sodium channel isoform (Homo sapiens, UniProt Q99250).
T2 construct: expressed in transfected cells
Description: hNav1.2 whole-cell voltage-clamp assay. The settings on record: use-dependent block, 10 Hz, read-out: NAV1.2* UDB-10HZ. The protocol: Wild-type (WT) cDNA stably transfected in Chinese hamster ovary (CHO) cells is used to record INa. Unless otherwise noted, all reagents are purchased from Sigma-Aldrich (St Louis, Mo., U.S.A.).
Whole-cell voltage-clamp recordings are used to measure the biophysical properties of WT. […] Cells are allowed to stabilize for 10 min after establishment of the whole-cell configuration before current is measured. Series resistance is compensated 90% to assure that the command potential is reached within microseconds with a voltage error<2 mV. Leak currents are subtracted by using an online P/4 procedure and all currents are low-pass Bessel filtered at 5 kHz and digitized at 50 kHz.
For clarity, representative ramp currents are low pass filtered off-line at 50 Hz. Specific voltage-clamp protocols assessing channel activation, fast inactivation and availability during repetitive stimulation are used. Results are presented as mean±SEM.
Tonic block of peak current is measured using a step to −10 mV (20 ms) from a holding potential of −120 mV (0.2 Hz). Use-dependent block of peak current is measured during pulse number 300 of a pulse train (−10 mV, 5 ms, 300 pulses, 10 Hz or 25 Hz) from a holding potential of −120 mV. Two sequential pulse train stimulations are averaged to obtain mean current traces for each recording condition, which are then used for offline subtraction and analysis.
For use-dependent studies, cells are stimulated with depolarizing pulse trains (−10 mV, 5 ms, 300 pulses, 10 and 25 Hz) from a holding potential of −120 mV. Currents are then normalized to the peak current recorded in response to the first pulse in each frequency train. For tonic block studies, peak current is evaluated in response to a 20 ms depolarization to −10 mV (0.2 Hz). […] Results are presented as mean±SEM.
A stock solution of 10 mM compound of Formula I is prepared in 0.1 M HCl or DMSO. […] The final DMSO concentration was kept at 0.1% in all solutions. Direct application of the perfusion solution to the clamped cell is achieved using the Perfusion Pencil system (Automate, Berkeley, Calif.). Direct cell perfusion is driven by gravity at a flow rate of 350 μL/min using a 250 micron tip. This system sequesters the clamped cell within a perfusion stream and enables complete solution exchange within 1 second. The clamped cell is perfused continuously starting immediately after establishing the whole-cell configuration. Control currents are measured during control solution perfusion.
Solutions are perfused for three minutes prior to current recordings to allow equilibrium (tonic) drug block. Tonic block of peak currents is measured from this steady-state condition. Three sequential current traces are averaged to obtain a mean current for each recording. The mean current traces are utilized for offline analysis. Use-dependent block of peak current is measured during pulse number 300 of the pulse train, (−10 mV, 5 ms, 300 pulses, 10 Hz) from a holding potential of −120 mV.

Read-outs that look alike come from different tables or passages of the source.

T2 sequence (Q99250 whole entry, canonical isoform): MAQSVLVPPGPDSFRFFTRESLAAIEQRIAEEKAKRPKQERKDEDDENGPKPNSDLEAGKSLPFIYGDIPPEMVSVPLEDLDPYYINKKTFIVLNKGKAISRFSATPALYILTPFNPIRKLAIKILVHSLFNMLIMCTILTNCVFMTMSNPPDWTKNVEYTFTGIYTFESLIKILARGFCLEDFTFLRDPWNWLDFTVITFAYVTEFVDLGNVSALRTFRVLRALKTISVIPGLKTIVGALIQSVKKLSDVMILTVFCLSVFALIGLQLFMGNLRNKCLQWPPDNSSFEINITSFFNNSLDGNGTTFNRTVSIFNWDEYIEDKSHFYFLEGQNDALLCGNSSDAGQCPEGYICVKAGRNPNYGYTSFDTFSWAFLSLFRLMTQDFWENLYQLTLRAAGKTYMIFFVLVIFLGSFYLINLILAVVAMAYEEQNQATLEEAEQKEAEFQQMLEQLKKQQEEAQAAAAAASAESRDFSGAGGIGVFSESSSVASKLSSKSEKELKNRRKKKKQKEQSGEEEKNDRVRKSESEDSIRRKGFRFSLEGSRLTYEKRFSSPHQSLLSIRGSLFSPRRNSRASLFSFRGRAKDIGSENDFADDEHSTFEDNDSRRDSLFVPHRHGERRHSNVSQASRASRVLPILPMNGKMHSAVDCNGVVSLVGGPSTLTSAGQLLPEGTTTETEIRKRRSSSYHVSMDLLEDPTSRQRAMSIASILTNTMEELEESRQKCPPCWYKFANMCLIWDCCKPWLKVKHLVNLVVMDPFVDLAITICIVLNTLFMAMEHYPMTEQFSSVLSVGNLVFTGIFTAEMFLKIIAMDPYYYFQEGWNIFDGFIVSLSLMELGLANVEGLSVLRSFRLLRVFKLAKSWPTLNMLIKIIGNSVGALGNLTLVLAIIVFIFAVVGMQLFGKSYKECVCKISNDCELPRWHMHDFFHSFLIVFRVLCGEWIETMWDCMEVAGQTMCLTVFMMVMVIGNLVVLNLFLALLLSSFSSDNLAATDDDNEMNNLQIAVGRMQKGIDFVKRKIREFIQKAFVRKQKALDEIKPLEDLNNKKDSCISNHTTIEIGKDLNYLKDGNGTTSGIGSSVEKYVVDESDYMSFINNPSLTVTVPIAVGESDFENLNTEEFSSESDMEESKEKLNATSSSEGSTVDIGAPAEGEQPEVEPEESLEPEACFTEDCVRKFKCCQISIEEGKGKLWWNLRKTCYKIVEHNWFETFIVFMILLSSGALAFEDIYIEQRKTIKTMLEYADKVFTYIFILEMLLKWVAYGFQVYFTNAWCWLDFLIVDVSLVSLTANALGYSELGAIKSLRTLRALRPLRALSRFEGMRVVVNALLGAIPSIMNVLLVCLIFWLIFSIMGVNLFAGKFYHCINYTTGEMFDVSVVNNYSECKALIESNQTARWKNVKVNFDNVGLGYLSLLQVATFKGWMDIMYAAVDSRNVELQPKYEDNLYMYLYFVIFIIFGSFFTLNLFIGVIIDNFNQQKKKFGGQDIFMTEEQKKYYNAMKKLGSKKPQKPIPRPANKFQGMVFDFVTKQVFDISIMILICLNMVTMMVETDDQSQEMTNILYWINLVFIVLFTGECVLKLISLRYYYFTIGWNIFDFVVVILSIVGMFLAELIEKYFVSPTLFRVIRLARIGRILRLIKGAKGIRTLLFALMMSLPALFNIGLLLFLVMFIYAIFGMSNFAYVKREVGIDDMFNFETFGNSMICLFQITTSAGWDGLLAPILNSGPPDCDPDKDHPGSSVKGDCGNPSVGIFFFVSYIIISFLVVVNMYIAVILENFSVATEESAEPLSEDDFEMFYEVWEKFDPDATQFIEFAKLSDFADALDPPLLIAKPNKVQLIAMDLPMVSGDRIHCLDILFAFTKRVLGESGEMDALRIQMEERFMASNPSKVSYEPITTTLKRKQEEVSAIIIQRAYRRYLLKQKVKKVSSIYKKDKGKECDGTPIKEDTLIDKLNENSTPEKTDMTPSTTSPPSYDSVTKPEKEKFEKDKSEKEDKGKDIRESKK
Sequence of hERG potassium channel (Q12809 whole entry): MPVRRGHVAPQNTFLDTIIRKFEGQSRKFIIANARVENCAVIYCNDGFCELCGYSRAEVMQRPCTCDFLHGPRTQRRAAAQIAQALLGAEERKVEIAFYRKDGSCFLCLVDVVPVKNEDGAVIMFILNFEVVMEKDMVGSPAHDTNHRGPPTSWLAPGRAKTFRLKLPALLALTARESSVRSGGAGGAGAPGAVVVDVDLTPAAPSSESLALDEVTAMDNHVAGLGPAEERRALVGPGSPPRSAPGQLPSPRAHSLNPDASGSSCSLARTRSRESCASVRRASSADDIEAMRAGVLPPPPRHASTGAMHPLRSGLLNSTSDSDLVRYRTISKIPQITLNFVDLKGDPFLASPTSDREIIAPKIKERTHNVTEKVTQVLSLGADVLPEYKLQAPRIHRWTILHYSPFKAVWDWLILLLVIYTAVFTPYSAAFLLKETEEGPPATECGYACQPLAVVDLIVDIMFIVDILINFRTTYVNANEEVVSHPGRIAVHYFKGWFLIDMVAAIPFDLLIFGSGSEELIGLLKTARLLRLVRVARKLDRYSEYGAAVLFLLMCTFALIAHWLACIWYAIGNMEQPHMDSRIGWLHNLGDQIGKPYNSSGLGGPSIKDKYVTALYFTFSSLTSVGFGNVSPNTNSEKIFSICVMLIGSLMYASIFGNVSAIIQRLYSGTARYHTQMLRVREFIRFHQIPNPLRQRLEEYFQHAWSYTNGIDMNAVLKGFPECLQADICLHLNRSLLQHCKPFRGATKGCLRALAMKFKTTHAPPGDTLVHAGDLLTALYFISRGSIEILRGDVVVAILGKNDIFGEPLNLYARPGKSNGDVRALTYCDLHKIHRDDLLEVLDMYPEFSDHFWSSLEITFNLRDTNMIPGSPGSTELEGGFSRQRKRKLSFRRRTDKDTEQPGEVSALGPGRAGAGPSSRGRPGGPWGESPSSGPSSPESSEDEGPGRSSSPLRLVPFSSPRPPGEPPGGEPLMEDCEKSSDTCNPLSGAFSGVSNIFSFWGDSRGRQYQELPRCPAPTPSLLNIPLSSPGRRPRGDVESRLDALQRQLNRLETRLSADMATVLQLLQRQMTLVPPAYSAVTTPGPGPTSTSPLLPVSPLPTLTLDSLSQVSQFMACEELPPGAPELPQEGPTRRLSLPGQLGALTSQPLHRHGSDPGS

As for `O=C(c1ncccn1)N1CCOc2ccc(-c3ccc(OC(F)(F)F)cc3)cc2C1` [III-1, pyrimidin-2-yl(7-(4-(trifluoromethoxy)phenyl)-2,3-dihydrobenzo[f][1,4]oxazepin-4(5H)-yl)methanone], on hERG potassium channel, the hERG was less than 10. The inhibition at 1 µM is -1% in data set [1] and -3% in data set [2].
Turning to `O=C1c2cc(-c3ccc(Cl)cc3F)ccc2OCCN1Cc1ncccn1` [II-117, 7-(4-chloro-2-fluorophenyl)-4-(pyrimidin-2-ylmethyl)-3,4-dihydrobenzo[f][1,4]oxazepin-5(2H)-one], on hERG potassium channel, the hERG is less than 10. Further, the inhibition at 1 µM in data set [1] was -11%; in data set [2], -18%.
One may read the IC50 as the midpoint of a concentration-inhibition curve. For the molecule `O=C1c2cc(-c3ccc(OC(F)(F)F)cc3)ccc2OCCN1Cc1ncccn1` [II-73, 4-(pyrimidin-2-ylmethyl)-7-(4-(trifluoromethoxy)phenyl)-3,4-dihydrobenzo[f][1,4]oxazepin-5(2H)-one], the IC50 in data set [1] (frequency of 10 Hz, read-out: IC50 block of hNav 1.1 peak INa) is greater than 100 µM; in data set [1] (frequency of 25 Hz, read-out: IC50 block of hNav 1.1), 3.4 µM. Moreover, the inhibition at 1 µM in data set [2] amounted to 19%.
In turn, `O=C1c2cc(-c3ccc(C(F)(F)F)cc3F)ccc2OCCN1Cc1ncccn1` [II-105, 7-(2-fluoro-4-(trifluoromethyl)phenyl)-4-(pyrimidin-2-ylmethyl)-3,4-dihydrobenzo[f][1,4]oxazepin-5(2H)-one] gave a hERG at hERG potassium channel of less than 10. Further, at hERG potassium channel (at 1 μM), the “inhibited (or reduced) the activity of the hERG potassium channel” value is recorded as less than 10%. Further, the inhibition at 1 µM in data set [1] is -17%; in data set [2] it was 1%.
Take `O=C1c2cc(-c3ccc(C(F)(F)F)cc3)ccc2OCCN1Cc1cn2ccccc2n1` [II-129, 4-(imidazo[1,2-a]pyridin-2-ylmethyl)-7-(4-(trifluoromethyl)phenyl)-3,4-dihydrobenzo[f][1,4]oxazepin-5(2H)-one]: the hERG on hERG potassium channel was 17. Moreover, the values for the inhibition at 1 µM in data set [1] and in data set [2] were 8% and 7%, respectively.
In turn, `O=C1c2cc(C#Cc3ccc(C(F)(F)F)cc3)ccc2OCCN1Cc1ncccn1` [VIII-6, 4-(pyrimidin-2-ylmethyl)-7-((4-(trifluoromethyl)phenyl)ethynyl)-3,4-dihydrobenzo[f][1,4]oxazepin-5(2H)-one] gave a hERG at hERG potassium channel of less than 10. The inhibition at 1 µM in data set [1] was 6%; in data set [2], 20%.
On hERG potassium channel, `O=C1c2cc(-c3ccc(Cl)cc3)ccc2OCCN1Cc1ncccn1` [II-88, 7-(4-chlorophenyl)-4-(pyrimidin-2-ylmethyl)-3,4-dihydrobenzo[f][1,4]oxazepin-5(2H)-one] displayed a hERG of 26. Moreover, the inhibition at 1 µM was -10% in data set [1] and -1% in data set [2].
The corresponding values for `O=C1c2cc(-c3ccc(C(F)(F)F)cc3Cl)ccc2OCCN1Cc1ncccn1` [II-110, 7-(2-chloro-4-(trifluoromethyl)phenyl)-4-(pyrimidin-2-ylmethyl)-3,4-dihydrobenzo[f][1,4]oxazepin-5(2H)-one] are 26, -4% and -2%.
Molecule `O=C1c2cc(-c3ccc(C(F)(F)F)cc3)ccc2OC[C@H]2CN(CC(F)(F)F)CCN12` [II-83, (R)-2-(2,2,2-trifluoroethyl)-8-(4-(trifluoromethyl)phenyl)-3,4,12,12a-tetrahydro-1H-benzo[f]pyrazino[2,1-c][1,4]oxazepin-6(2H)-one] returned a hERG at hERG potassium channel of 21. In addition, the inhibition at 1 µM in data set [1] is -2%; in data set [2] it was 10%.
`O=C1CN(Cc2ccccc2)C(=O)c2cc(-c3ccc(C(F)(F)F)cc3)ccc2N1` [Compound X-8, 4-benzyl-7-(4-(trifluoromethyl)phenyl)-3,4-dihydro-1H-benzo[e][1,4]diazepine-2,5-dione] registered a hERG at hERG potassium channel of less than 10. Also, the inhibition at 1 µM in data set [1] is -12%; in data set [2], -14%.
Molecule `CC(C)(C)c1ccc(-c2ccc3c(c2)C(=O)N(Cc2ncccn2)CCO3)cc1` [II-98, 7-(4-tert-butylphenyl)-4-(pyrimidin-2-ylmethyl)-3,4-dihydrobenzo[f][1,4]oxazepin-5(2H)-one] came in with a hERG at hERG potassium channel of less than 10. For the same molecule, the inhibition at 1 µM in data set [1] is -1%; in data set [2], -8%.
On to `O=C1c2cc(C#Cc3ccc(OC(F)(F)F)cc3)ccc2OCCN1Cc1ncccn1` [VIII-4, 4-(pyrimidin-2-ylmethyl)-7-((4-(trifluoromethoxy)phenyl)ethynyl)-3,4-dihydrobenzo[f][1,4]oxazepin-5(2H)-one], for which the hERG on hERG potassium channel was 30. Also, the figures for the inhibition at 1 µM in data set [1] and in data set [2] were 5% and 18%, respectively.
Turning to `O=C1c2cc(-c3ccc(C(F)(F)F)cc3)ccc2OC[C@H]2CN(CC(F)F)CCN12` [II-22, (R)-2-(2,2-difluoroethyl)-8-(4-(trifluoromethyl)phenyl)-3,4,12,12a-tetrahydro-1H-benzo[f]pyrazino[2,1-c][1,4]oxazepin-6(2H)-one], the hERG on hERG potassium channel is on record as 16. Further, the inhibition at 1 µM was determined as 3% in data set [1] and 15% in data set [2].
